Species: Rattus norvegicus
Experiment: Open TG-GATES - Regimen: Single
Type: toxicity, organism-based, Sprague-Dawley
Set-up: regimen Single, gender Male, age 6 weeks
Settings: in vivo, po, 60 mg/kg, route gavage, dose level High; for APTT / Bas / Eos / Fbg / Hb / Ht / Lym / MCH / MCHC / MCV / Mono / Neu / PT / Plat / RBC / Ret / WBC: tissue Blood; for LIVER: tissue Liver; for A/G / ALP / ALT / AST / BUN / CRE / Ca / Cl / DBIL / GLC / IP / K / LDH / Na / PL / RALB / TBIL / TC / TG / TP / gamma-GTP: tissue Plasma

Compound: O=[N+]([O-])c1ccc(O)c([N+](=O)[O-])c1 [2,4-DINITROPHENOL]
- TERMINAL_BW (3 h): 203.7 g
- APTT (3 h): 17.2 s
- Bas (3 h): 0%
- Eos (3 h): 0.4%
- Fbg (3 h): 232.6 mg/dL
- Hb (3 h): 12.5 g/dL
- Ht (3 h): 37.7%
- Lym (3 h): 79.6%
- MCH (3 h): 21.3 pg
- MCHC (3 h): 33.4%
- MCV (3 h): 63.9 fL
- Mono (3 h): 7%
- Neu (3 h): 13.2%
- PT (3 h): 12.4 s
- Plat (3 h): 127.8 x10_4/uL
- RBC (3 h): 590 x10_4/ul
- Ret (3 h): 8.6%
- WBC (3 h): 75.8 x10_2/uL
- LIVER (3 h): 8.6 g
- A/G (3 h): 2.6
- ALP (3 h): 1665.4 IU/L
- ALT (3 h): 39.6 IU/L
- AST (3 h): 95.6 IU/L
- BUN (3 h): 19 mg/dL
- CRE (3 h): 0.5 mg/dL
- Ca (3 h): 11.4 mg/dL
- Cl (3 h): 103.6 meq/L
- DBIL (3 h): 0.014 mg/dL
- GLC (3 h): 236.8 mg/dL
- IP (3 h): 11.4 mg/dL
- K (3 h): 4.5 meq/L
- LDH (3 h): 215 IU/L
- Na (3 h): 137 meq/L
- PL (3 h): 129.4 mg/dL
- RALB (3 h): 3.9 g/dL
- TBIL (3 h): 0.026 mg/dL
- TC (3 h): 77.6 mg/dL
- TG (3 h): 56.8 mg/dL
- TP (3 h): 5.4 g/dL
- gamma-GTP (3 h): 0 IU/L
- TERMINAL_BW (6 h): 206.8 g
- APTT (6 h): 16.1 s
- Bas (6 h): 0%
- Eos (6 h): 0.4%
- Fbg (6 h): 247.6 mg/dL
- Hb (6 h): 12.6 g/dL
- Ht (6 h): 38%
- Lym (6 h): 70.4%
- MCH (6 h): 21.8 pg
- MCHC (6 h): 33.3%
- MCV (6 h): 65.6 fL
- Mono (6 h): 9.4%
- Neu (6 h): 19.8%
- PT (6 h): 11.7 s
- Plat (6 h): 116.6 x10_4/uL
- RBC (6 h): 580.4 x10_4/ul
- Ret (6 h): 10%
- WBC (6 h): 114 x10_2/uL
- LIVER (6 h): 8.7 g
- A/G (6 h): 2.7
- ALP (6 h): 1501.4 IU/L
- ALT (6 h): 36.2 IU/L
- AST (6 h): 96.6 IU/L
- BUN (6 h): 20.6 mg/dL
- CRE (6 h): 0.6 mg/dL
- Ca (6 h): 11.4 mg/dL
- Cl (6 h): 106.6 meq/L
- DBIL (6 h): 0.012 mg/dL
- GLC (6 h): 245.4 mg/dL
- IP (6 h): 10.2 mg/dL
- K (6 h): 4.3 meq/L
- LDH (6 h): 245.4 IU/L
- Na (6 h): 138.6 meq/L
- PL (6 h): 150.4 mg/dL
- RALB (6 h): 4 g/dL
- TBIL (6 h): 0.026 mg/dL
- TC (6 h): 93.4 mg/dL
- TG (6 h): 31.4 mg/dL
- TP (6 h): 5.5 g/dL
- gamma-GTP (6 h): 0 IU/L

Source: ChEMBL document CHEMBL3885861, “Open TG-GATES”
